Results: patent publication US20060216299A1, “Cell cycle targets and peptides” (Rigel Pharmaceuticals, Inc., priority 2002, published 2006)
Where no end group is shown, it is not given here.

Legend:
[1] = tested on: A549.tTA cells; assay: Cell tracker assay (Dil) of GFP fusion peptides; type: cell-based; details: for anti-proliferative effect (cell tracker assay, in words): GFP-fused peptides expressed in A549.tTA cells; for cell death after infection of retrovirus encoding GFP fused peptides: A549.tTA cells, data not shown
Method: A549.tTA cells were infected with tet-regulatable retroviruses expressing GFP fusion peptides, stained with the cell tracker dye, Dil, and incubated at 37° C. for five days. After the incubation, fluorescent intensity of GFP and Dil was analyzed with MoFlo. A growth ratio was obtained as the ratio of mean Dil fluorescent intensity for the GFP positive population relative to that of the GFP negative population.
Effect of GFP fused peptides and their mutants. GFP fused peptides (#40, #41, #88 and their mutants) expressing A549.tTA cells were stained with Dil and fluorescent intensity of GFP and Dil was examined with MoFlo. A growth ratio was obtained as described above. Mutated residues were underlined. Amino acid sequences of #40, #41, and #88 were aligned with leucine-rich motifs of HIV-1 Rev (amino acid position 75 to 84, gi|16118296|gb|AAL12672.1|), HTLV-1 Rex (amino acid position 82 to 93, gi|7963889|gb|AAF71372.1), Mitogen-activated protein kinase kinase 1, MAPKK, (amino acid position 33 to 43, gi|5579478|ref|NP_002746.1|), Human homologue of mouse double minute 2, Hdm-2, (amino acid position 190 to 200, gi|4505137|ref|NP_002383.1|), and Protein kinase inhibitor, PKI (amino acid position 38 to 48, gi|203271|gb|AAA40867.1|).
Effect of GFP fused peptides and their mutants. A549.tTA cells were infected with retroviruses encoding GFP fusion peptides (#38 and its mutants) and stained with the cell tracker dye, Dil. After the infection, fluorescent intensity of GFP and Dil was examined with MoFlo. A growth ratio was obtained as the ratio of mean Dil fluorescent intensity for the GFP positive population relative to that of the GFP negative population and data are shown as mean±SE in duplicate. Mutated residues or non-identical residues of the C-terminus of cell division cycle 42 isoform 2, CDC42C, (amino acid position 183 to 191, gi|16357472|ref|NP_426359.1|) to #38 were underlined. As controls, entire GFP-C20 library, dsGFP and GFP fused p21C expressing A549.tTA cells were used.

[2] = tested on: A549 cells; assay: High content imaging of anti-proliferative synthetic K7 peptides (nuclei and apoptotic nuclei, 24 hours); type: cell-based, human
Method: A549 cells (American Type Culture Collection (ATCC), Manassas, Va., U.S.A.) were plated at 2000 cells/well in 96 well plates with F12K media supplemented with 10% fetal bovine serum and 1% penicillin/streptomycin and allowed to grow for 24 hours. Peptide dissolved in media was added to the cells to a final concentration ranging from 0.8 to 25 uM in triplicate. Following incubation with peptide for 24 hours, cells were fixed with 3.7% formaldehyde for 30 minutes, rinsed in PBS and stained with DAPI (Molecular Probes) to label nuclear DNA. Digital images were taken of the labeled nuclei in each well using a Zeiss Axiovert microscope, UV filter set and Photometrics camera.

[3] = tested on: A549 lung carcinoma cells; assay: Fluorescence microscopy examination of A549 cells exposed to lys7-peptides (nuclei, apoptosis, cell cycle stage, 48 hours); type: cell-based, human; details: for number of observed cell nuclei remaining: A549 cells, 48 hours exposure, increasing doses; for cell cycle stage distribution: asynchronously growing A549 cells, 48 hours, remaining cells that have not undergone apoptosis
Method: A549 tumor cells (American Type Culture Collection, Fairfax Va.) were plated at 2000 cells per well in 96 well plates with F12k media supplemented with 10% fetal bovine serum and 1% penicillin/streptomycin and allowed to grow for 24 hours. Peptide dissolved in media was added to the cells to a final concentration of 0.8 to 100 uM in triplicate. Following incubation with peptide for 24 or 48 hours, cells were fixed with 3.7% formaldehyde for 30 minutes, rinsed in PBS and stained with DAPI (Molecular Probes, OR) to label nuclear DNA. Digital images of the labeled nuclei in each well were taken using a Zeiss Axiovert microscope, UV filter set and Photometrics camera.

[4] = tested on: A549 cells expressing GFP fusion #38 and #41; assay: Displacement of cellular localization of GFP fusion peptides by synthetic analogues; type: cell-based, human; details: 100 μM peptide, 5 hours
Method: GFP fused #38, #40, and #41 were concentrated at the plasma membrane and granular cytoplasmic structures. […] We examined whether synthetic analogues can displace cellular localization of GFP fusion peptides. A549 cells expressing GFP fusion #38 and #41 were incubated with 100 μM of K7—#41, K7—#41M and K7—#40 for 5 hours and GFP localization was analyzed using a fluorescent microscope.

[5] = tested on: A549.tTA cells; assay: Cell cycle analysis (Hoechst 33258) of cells expressing GFP fusion peptides; type: cell-based, human; details: GFP low (R1) and GFP high (R2) populations
Method: A549.tTA cells expressing GFP fusion peptides were fixed with Cell Fixation/Permeabilization Kits (BD bioscience, Lexington, Ky., U.S.A.) as manufacturer's recommendation and stained with 5 mM Hoechst 33258 (Sigma, St. Louis, Mo., U.S.A.). GFP and Hoechst fluorescent intensity was analyzed with MoFlo.

[6] = Table 2, GFP fusion #38 and mutants in A549.tTA cells, ratio of mean Dil intensity, GFP positive relative to GFP negative, duplicate
[7] = Table 1, GFP fused peptides in A549.tTA cells, ratio of mean Dil fluorescent intensity, GFP positive relative to GFP negative population, five days

Row | Substance | anti-proliferative effect (cell tracker assay, in words) [1] | Growth Ratio (mean ± SE) [1, 6] | Growth Ratio (mean ± SE) [1, 7] | further results
1 | TAGLLKLVQAKRKCCIS (cysteine pairing not given here; also: GFP fusion) [#38(S2A)] | enhanced | 5.5 ± 0.8 | – | –
2 | GRGCIFRWRRGARGMARAFK (also: GFP fusion) [#41(L12A/M16A/L18A)] | no significant localization or anti-proliferative effect | – | 1.1 ± 0.1 | –
3 | TSGLLKAVQAKRKCCIS (cysteine pairing not given here; also: GFP fusion) [#38(L7A)] | – | 2.0 ± 0.2 | – | –
4 | GRGCIFRWRRGLRGMMRAFK (also: GFP fusion) [#41(L18A)] | partial loss of the anti-proliferative effect | – | 1.7 | –
5 | TSGLAKLVQAKRKCCIS (cysteine pairing not given here; also: GFP fusion) [#38(L5A)] | – | 1.9 ± 0.2 | – | –
6 | synthetic #41 fused with seven Lys (K7) via a linker (GGEEAAKA) at the N-terminus [K7—#41] | – | – | – | apoptotic nuclei [2]: increase in apoptotic nuclei; number of observed cell nuclei remaining [3]: ca. 10 % of original values; cell cycle stage distribution [3]: G1 phase cells were depleted and the percent of M phase cells increased significantly; change of cellular localization of GFP fusion #41 [4]: punctuated localization of GFP and loss of GFP localization in the cell-cell contact area
7 | TSGLLALVQAKRKCCIS (cysteine pairing not given here; also: GFP fusion) [#38(K6A)] | reduced anti-proliferative effect | 1.4 ± 0.1 | – | –
8 | ASGLLKLVQAKRKCCIS (cysteine pairing not given here; also: GFP fusion) [#38(T1A)] | – | 3.5 ± 0.2 | – | –
9 | TSGLLKLAQAKRKCCIS (cysteine pairing not given here; also: GFP fusion) [#38(V8A)] | – | 2.7 ± 0.2 | – | –
10 | RLRRICSGILLIRRIAGAFVRPVRP (also: GFP fusion) [#88(L16A/L18A)] | – | – | 1.1 | –
11 | RLRRICSGILLIRRILGIFVRPVRP [#88] | significant inhibitors of cell proliferation | – | 2.7 ± 0.4 | cell death after infection of retrovirus encoding GFP fused peptides [1]: did not observe massive cell death; cell cycle profile (DNA content, Hoechst 33258) [5]: no significant change in the DNA content profile
12 | TSGLLKLVQAKRKCCIS ({GFP}-TSGLLKLVQAKRKCCIS; not fully specified; cysteine pairing not given here) [#38, 17mer anti-proliferative peptide with CAAX box motif, tested fused to the C-terminus of GFP] | significant inhibitors of cell proliferation | 2.5 ± 0.2 | – | cell death after infection of retrovirus encoding GFP fused peptides [1]: did not observe massive cell death; cell cycle profile (DNA content, Hoechst 33258) [5]: arrested in G0/G1
13 | AALEPPETQPKRKCCIF [CDC42C, C-terminal 17 residues of cell division cycle 42 isoform 2, expressed as GFP-fused peptide, reference compound] | no significant anti-proliferative activity | 1.3 ± 0.1 | – | –
14 | TSALLKLVQAKRKCCIS (cysteine pairing not given here; also: GFP fusion) [#38(G3A)] | – | 2.7 ± 0.2 | – | –
15 | KRRQTSMTDFYHSKRRLIFSKRKP [p21C, reference compound] | significant antiproliferative effect | 4.5 ± 0.8 | 4.5 ± 0.8 | –
16 | RWDPTRLLRFRFLRMLVRRSRPVRP (also: GFP fusion) [#40, anti-proliferative peptide tested as GFP fusion] | significant inhibitors of cell proliferation | – | 2.4 ± 0.3 | cell death after infection of retrovirus encoding GFP fused peptides [1]: did not observe massive cell death; cell cycle profile (DNA content, Hoechst 33258) [5]: no significant change in the DNA content profile
17 | RWDPTRLLRFRFARALVRRSRPVRP (also: GFP fusion) [#40(L13A/M15A)] | – | – | 1.6 ± 0.2 | –
18 | RWDPTRLLRFRFLRALVRRSRPVRP (also: GFP fusion) [#40(M15A)] | – | – | 2.0 | –
19 | TSGALKLVQAKRKCCIS (cysteine pairing not given here; also: GFP fusion) [#38(L4A)] | – | 2.2 ± 0.1 | – | –
20 | QAKRKCCIS ({GFP}-QAKRKCCIS; cysteine pairing not given here; also: fused to GFP C-terminus) [#38NΔ(1-8)] | – | 1.5 ± 0.1 | – | –
21 | RLRRICSGILLARRIAGAFVRPVRP (also: GFP fusion) [#88(I12AILI6A/118A)] | – | – | 1.1 ± 0.1 | –
22 | RWDPTRLLRARFARALVRRSRPVRP (also: GFP fusion) [#40(F10A/L13A/M15A)] | – | – | 1.3 ± 0.1 | –
23 | GRGCIFRWRRGLRGMARAFK (also: GFP fusion) [#41(M16A/L18A)] | reduced the anti-proliferative effect | – | 1.5 | –
24 | synthetic #40 fused with seven Lys (K7) via a linker (GGEEAAKA) at the N-terminus [K7—#40] | – | – | – | apoptotic nuclei [2]: increase in apoptotic nuclei; number of observed cell nuclei remaining [3]: ca. 10 % of original values; cell cycle stage distribution [3]: depletion of G1 cells, a complete loss of S and G2 cells at 100 mM levels, and an increase in M phase cells; change of cellular localization of GFP fusion #41 [4]: these changes were not seen
25 | TSGLLKLVQAKRKACIS (not fully specified (N-terminus)) [#38(C14A)] | – | 1.1 ± 0.1 | – | –
26 | GRGCIFRWRRGLRGMMRLFK (also: GFP fusion) [#41, anti-proliferative peptide tested as GFP fusion] | significant inhibitors of cell proliferation | – | 2.7 ± 0.2 | cell death after infection of retrovirus encoding GFP fused peptides [1]: did not observe massive cell death; cell cycle profile (DNA content, Hoechst 33258) [5]: arrested in G0/G1
27 | RLRRICSGILLIRRILGAFVRPVRP (also: GFP fusion) [#88(118A)] | – | – | 1.5 | –
